Source: patent US8394578B2, “Method of forming resist pattern and negative tone-development resist composition” (Tokyo Ohka Kogyo Co., Ltd., priority 2010, dated 2013)

Experiment: Solubility in organic solvent (Test Example 1)
Assay type: physicochemical
Conditions: monomer, stirred for 1 hour; for degree of dissolution in MEK: 1 g added to MEK at 25° C.; for degree of dissolution in PGME: 1 g added to PGME at 25° C.; for degree of dissolution in PGMEA: 1 g added to PGMEA at 25° C.; for degree of dissolution in Butyl acetate: 1 g added to butyl acetate at 25° C.
Description: Among the monomers used in Polymer Synthesis Examples 1 to 4 and Comparative Polymer Synthesis Examples 1 to 4, with respect to compounds (m0-1) and (m0-2) which are classified as a structural unit (a0), compounds (m2-1) and (m2-2) which are classified as a structural unit (a2), a compound in which the —S(═O)2— portion of the compound (m0-1) has been replaced with —C(═O)— (a compound in which the cyclic group within the compound (m0-1) has been replaced with the cyclic group of the compound (m2-1), hereafter referred to as compound (m2-3)), and polymeric compounds 1, 1′ and 4′, the solubility in an organic solvent was evaluated as follows.
1 g of each compound was added to an organic solvent indicated in Table 1 at 25° C., and stirred for 1 hour. After the stirring, the degree of dissolution of each compound in each organic solvent was evaluated with the following criteria. […]

## C=C(C)C(=O)OCC(=O)OC1C2CC3C1OS(=O)(=O)C3C2 (stereo not shown) [Compound (m0-1)]
  degree of dissolution in MEK: B (15% by weight or more but less than 40% by weight)
  degree of dissolution in PGME: C (7% by weight or more but less than 15% by weight)
  degree of dissolution in PGMEA: C (7% by weight or more but less than 15% by weight)
  degree of dissolution in Butyl acetate: C (7% by weight or more but less than 15% by weight)

## C=C(C)C(=O)OC1C2CC3C1OS(=O)(=O)C3C2 (stereo not shown) [Compound (m0-2)]
  degree of dissolution in MEK: B (15% by weight or more but less than 40% by weight)
  degree of dissolution in PGME: C (7% by weight or more but less than 15% by weight)
  degree of dissolution in PGMEA: C (7% by weight or more but less than 15% by weight)
  degree of dissolution in Butyl acetate: D (less than 7% by weight)

## C=C(C)C(=O)OC1C2CC3C(=O)OC1C3C2 (stereo not shown) [Compound (m2-1)]
  degree of dissolution in MEK: B (15% by weight or more but less than 40% by weight)
  degree of dissolution in PGME: C (7% by weight or more but less than 15% by weight)
  degree of dissolution in PGMEA: B (15% by weight or more but less than 40% by weight)
  degree of dissolution in Butyl acetate: C (7% by weight or more but less than 15% by weight)

## C=C(C)C(=O)OC1CCOC1=O (stereo not shown) [Compound (m2-2)]
  degree of dissolution in MEK: A (40% by weight or more)
  degree of dissolution in PGME: A (40% by weight or more)
  degree of dissolution in PGMEA: A (40% by weight or more)
  degree of dissolution in Butyl acetate: A (40% by weight or more)
